Key:
CDK2 = target: T1, CDK2 (Homo sapiens, UniProt P24941); assay: CDK2 HiBiT assay (degradation, Dmax); assay type: cell-based; settings: HEK293 clonal lines with CRISPR KI HiBiT tag on CDK2, stably expressing LgBiT; 24 hours incubation
T1 construct: HEK293 clonal lines with CRISPR KI HiBiT tag on CDK2 proteins; host or cells: HEK293 clonal line with CRISPR knock-in HiBiT on CDK2, stably expressing LgBiT
Protocol: HEK293 clonal lines with CRISPR KI HiBiT tag on CDK2 proteins and stably expressing LgBiT protein were obtained from Promega (Madison, WI). Cells were plated at 5000 cells per well using Multiflo (BioTek) in 384-well white solid bottom plates (Corning, 3570BC) in 25 ul volume in DMEM media (DMEM, high glucose, HEPES, no phenol red (ThermoFisher Scientific, 21063029)) containing 10% FBS (Corning, 35-075-CV), 1% Penicillin/Streptomycin (ThermoFisher Scientific, 15140-122). Cells were incubated for 16 hours at 37° C., 5% CO2. 75 nL of a compound at 30 μM were dosed into the plate using an Echo® 650 liquid handler (Labcyte). Cells were incubated at 37° C., 5% CO2 for 24 hours. 5 ul of HiBiT Lysis Reagent (Promega, N3030) is added using Combi Multidrop (ThermoFisher Scientific), plates are incubated for 15′ at 37° C., 5% CO2 and then signal was read on a Pherastar FSX using “LUM plus” optic module.
Analysis was performed in Scinamic (Scinamic, Cambridge, MA). Luminescence response (R) was calculated by the formula: response=100*(S−N)/(P−N) where S is the signal of the well, N and P the mean negative and positive control values respectively of the same plate. The luminescence response was then fitted in Scinamic using a 3-parameter agonist logistic fit (hillslope=1, EC50>0, top/bottom unconstrained).

CRBN-DDB1 = CRBN-DDB1 (Homo sapiens, UniProt Q96SW2); assay: Compound binding to CRBN by HTRF assay; settings: CRBN-DDB1 2.5 nM, Cy5-Thalidomide 100 nM probe; Ki from geometric mean of IC50 by Cheng-Prustoff transformation
Protocol: Compound activity was monitored in a Homogenous Time-Resolved Fluorescence (HTRF) assay using 1-[5-({2-[2-(2-{[2-(2,6-dioxopiperidin-3-yl)-1,3-dioxo-2,3-dihydro-1H-isoindol-4-yl]oxy}acetamido)ethoxy]ethyl}carbamoyl)pentyl]-3,3-dimethyl-2-[(1E,3E)-5-[(2E)-1,3,3-trimethyl-5-sulfo-2,3-dihydro-1H-indol-2-ylidene]penta-1,3-dien-1-yl]-3H-indol-1-ium-5-sulfonate as a fluorescent probe. Biochemical assays were conducted in Greiner white 384 well HiBase plates (Cat. No 784075-25) in 10 μL total volume. A one pot detection solution of CRBN-DDB1 (2.5 nM), Anti-His Terbium Cryptate Gold (1×, PerkinElmer Cat. #: 61HI2TLB), and Cy5-Thalidomide (100 nM, Tenova Cat.: T52461) was prepared in 20 mM HEPES, 20 mM NaCl, 0.2 mM TCEP, 0.2 mM EDTA, and 0.005% Tween20 was dispensed to each assay plate. Compounds were stored in dry, ambient temperatures at 10 mM. A 10-point, 1:3 dilution series was prepared from 10 mM stock concentrations in Echo-compatible LDV plates. 10 nL of each compound dilution series was dispensed into assays wells using an Echo 650 (Labcyte inc. USA). 10 nL of 10 mM Lenalidomide was transferred into the active-control wells for the assay and 10 nL of DMSO was transferred into the neutral-control wells. The assay was then allowed to incubate for 30 min at ambient temperature after transferring compound. Plate measurements were taken on a Pherastar FSX (BMG Labtech, Germany) using the HTRF Red filter (Ex. 337 nm, em1:620 nm, em2:665 nm) (Flashes: 50, Integration time: 60-400 us, Z-height: 10 mm, Ratio-multipler: 10,000). The HTRF signal was then subsequently normalized to the neutral and active controls. Analysis and IC50 values were derived using KNIME analytics (KNIME Zurich) transformation and fitting within Collaborative Drug Discovery (Collaborative Drug Discovery USA). Ki was derived from the geometric mean of the IC50 values using the Cheng-Prustoff transformation.

CRBN-DDB1, sequence (Q96SW2 whole entry): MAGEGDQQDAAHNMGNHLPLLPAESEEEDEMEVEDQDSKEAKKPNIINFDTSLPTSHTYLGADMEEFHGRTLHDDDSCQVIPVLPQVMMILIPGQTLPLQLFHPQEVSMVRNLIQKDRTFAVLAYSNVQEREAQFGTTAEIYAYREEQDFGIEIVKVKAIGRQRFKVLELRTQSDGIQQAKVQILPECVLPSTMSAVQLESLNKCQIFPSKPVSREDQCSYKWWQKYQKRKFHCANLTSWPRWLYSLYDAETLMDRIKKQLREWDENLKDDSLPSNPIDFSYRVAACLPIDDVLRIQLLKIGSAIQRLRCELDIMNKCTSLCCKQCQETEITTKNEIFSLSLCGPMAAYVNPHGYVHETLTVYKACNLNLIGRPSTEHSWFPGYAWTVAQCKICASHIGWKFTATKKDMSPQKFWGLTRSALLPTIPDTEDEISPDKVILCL
CRBN-DDB1, sequence (Q16531 whole entry partner): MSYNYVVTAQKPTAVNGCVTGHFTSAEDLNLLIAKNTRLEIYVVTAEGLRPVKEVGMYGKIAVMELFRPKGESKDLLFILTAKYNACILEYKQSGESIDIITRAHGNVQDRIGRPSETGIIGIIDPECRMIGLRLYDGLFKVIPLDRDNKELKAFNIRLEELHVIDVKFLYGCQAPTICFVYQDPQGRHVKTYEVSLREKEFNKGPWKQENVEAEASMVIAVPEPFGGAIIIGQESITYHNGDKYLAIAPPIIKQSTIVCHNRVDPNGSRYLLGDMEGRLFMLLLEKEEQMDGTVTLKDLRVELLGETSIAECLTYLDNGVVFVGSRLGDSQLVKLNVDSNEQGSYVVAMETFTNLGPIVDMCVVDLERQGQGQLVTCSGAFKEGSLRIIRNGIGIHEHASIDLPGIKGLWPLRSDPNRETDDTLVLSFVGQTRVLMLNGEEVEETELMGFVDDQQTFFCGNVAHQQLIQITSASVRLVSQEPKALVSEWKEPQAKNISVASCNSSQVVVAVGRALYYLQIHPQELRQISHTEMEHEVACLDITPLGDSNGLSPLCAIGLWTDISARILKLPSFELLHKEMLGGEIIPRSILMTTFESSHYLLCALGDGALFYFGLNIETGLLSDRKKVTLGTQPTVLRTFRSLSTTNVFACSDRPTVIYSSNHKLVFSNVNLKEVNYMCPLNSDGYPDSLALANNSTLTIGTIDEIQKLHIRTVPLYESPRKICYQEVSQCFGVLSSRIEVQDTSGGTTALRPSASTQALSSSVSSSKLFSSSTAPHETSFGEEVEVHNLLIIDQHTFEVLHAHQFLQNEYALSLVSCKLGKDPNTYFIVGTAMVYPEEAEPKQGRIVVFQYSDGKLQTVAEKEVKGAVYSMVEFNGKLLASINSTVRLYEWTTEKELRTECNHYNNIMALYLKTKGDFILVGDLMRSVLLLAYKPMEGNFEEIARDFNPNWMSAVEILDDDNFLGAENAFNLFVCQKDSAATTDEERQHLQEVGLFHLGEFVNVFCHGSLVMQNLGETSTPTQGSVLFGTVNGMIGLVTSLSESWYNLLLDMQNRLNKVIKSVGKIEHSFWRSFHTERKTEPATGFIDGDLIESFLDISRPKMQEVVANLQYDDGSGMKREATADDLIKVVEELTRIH

| SMILES | Dmax (CDK2) [%] | Ki (CRBN-DDB1) [nM] |
| --- | --- | --- |
| O=C1CCC(N2Cc3ccc(CNC(=O)OCc4ccc(Cl)cc4)cc3C2=O)C(=O)N1 (centres unmarked) [Compound 24, (4-chlorophenyl)methyl N-{[2-(2,6-dioxopiperidin-3-yl)-3-oxo-2,3-dihydro-1H-isoindol-5-yl]methyl}carbamate] | ≤ 10 | ≤ 100 |
| O=C1CCC(N2Cc3ccc(CNC(=O)OCc4ccc([N+](=O)[O-])cc4)cc3C2=O)C(=O)N1 (centres unmarked) [Compound 26, (4-nitrophenyl)methyl N-{[2-(2,6-dioxopiperidin-3-yl)-3-oxo-2,3-dihydro-1H-isoindol-5-yl]methyl}carbamate] | 10 to 50 | 100 to 1000 |
| Cc1ccc(COC(=O)NCc2ccc3c(c2)C(=O)N(C2CCC(=O)NC2=O)C3)cc1 (centres unmarked) [Compound 29, (4-methylphenyl)methyl N-{[2-(2,6-dioxopiperidin-3-yl)-3-oxo-2,3-dihydro-1H-isoindol-5-yl]methyl}carbamate] | ≤ 10 | ≤ 100 |
| Cc1ccc(COC(=O)NCc2ccc3c(c2)C(=O)N(C2CCC(=O)NC2=O)C3)c(C)c1 (centres unmarked) [Compound 30, (2,4-dimethylphenyl)methyl N-{[2-(2,6-dioxopiperidin-3-yl)-3-oxo-2,3-dihydro-1H-isoindol-5-yl]methyl}carbamate] | 10 to 50 | 100 to 1000 |
| O=C1CCC(N2Cc3ccc(CNC(=O)OCc4cccc(C(F)(F)F)c4)cc3C2=O)C(=O)N1 (centres unmarked) [Compound 31, [3-(trifluoromethyl)phenyl]methyl N-{[2-(2,6-dioxopiperidin-3-yl)-3-oxo-2,3-dihydro-1H-isoindol-5-yl]methyl}carbamate] | 10 to 50 | ≤ 100 |
| O=C1CCC(N2Cc3ccc(CNC(=O)OCc4cccc([N+](=O)[O-])c4)cc3C2=O)C(=O)N1 (centres unmarked) [Compound 32, (3-nitrophenyl)methyl N-{[2-(2,6-dioxopiperidin-3-yl)-3-oxo-2,3-dihydro-1H-isoindol-5-yl]methyl}carbamate] | ≤ 10 | 100 to 1000 |
| CCOc1c(C)cc(COC(=O)NCc2ccc3c(c2)C(=O)N(C2CCC(=O)NC2=O)C3)cc1C (centres unmarked) [Compound 34, (4-ethoxy-3,5-dimethylphenyl)methyl N-{[2-(2,6-dioxopiperidin-3-yl)-3-oxo-2,3-dihydro-1H-isoindol-5-yl]methyl}carbamate] | 10 to 50 | ≤ 100 |
| CCC(C)(C)c1ccc(COC(=O)NCc2ccc3c(c2)C(=O)N(C2CCC(=O)NC2=O)C3)cc1 (centres unmarked) [Compound 36, [4-(2-methylbutan-2-yl)phenyl]methyl N-{[2-(2,6-dioxopiperidin-3-yl)-3-oxo-2,3-dihydro-1H-isoindol-5-yl]methyl}carbamate] | 10 to 50 | 100 to 1000 |
| C#CCOc1ccc(COC(=O)NCc2ccc3c(c2)C(=O)N(C2CCC(=O)NC2=O)C3)cc1 (centres unmarked) [Compound 39, [4-(prop-2-yn-1-yloxy)phenyl]methyl N-{[2-(2,6-dioxopiperidin-3-yl)-3-oxo-2,3-dihydro-1H-isoindol-5-yl]methyl}carbamate] | 10 to 50 | ≤ 100 |
| CCOc1ccc(COC(=O)NCc2ccc3c(c2)C(=O)N(C2CCC(=O)NC2=O)C3)c(C)c1 (centres unmarked) [Compound 41, (4-ethoxy-2-methylphenyl)methyl N-{[2-(2,6-dioxopiperidin-3-yl)-3-oxo-2,3-dihydro-1H-isoindol-5-yl]methyl}carbamate] | 10 to 50 | 100 to 1000 |
| CCCc1ccc(COC(=O)NCc2ccc3c(c2)C(=O)N(C2CCC(=O)NC2=O)C3)cc1 (centres unmarked) [Compound 43, (4-propylphenyl)methyl N-{[2-(2,6-dioxopiperidin-3-yl)-3-oxo-2,3-dihydro-1H-isoindol-5-yl]methyl}carbamate] | 10 to 50 | ≤ 100 |
| CC(C)(C)c1cccc(COC(=O)NCc2ccc3c(c2)C(=O)N(C2CCC(=O)NC2=O)C3)c1 (centres unmarked) [Compound 45, (3-tert-butylphenyl)methyl N-{[2-(2,6-dioxopiperidin-3-yl)-3-oxo-2,3-dihydro-1H-isoindol-5-yl]methyl}carbamate] | 10 to 50 | ≤ 100 |
| CC(C)COc1ccc(COC(=O)NCc2ccc3c(c2)C(=O)N(C2CCC(=O)NC2=O)C3)cc1 (centres unmarked) [Compound 46, [4-(2-methylpropoxy)phenyl]methyl N-{[2-(2,6-dioxopiperidin-3-yl)-3-oxo-2,3-dihydro-1H-isoindol-5-yl]methyl}carbamate] | 10 to 50 | 100 to 1000 |

More lines, now with the values ahead:

| Dmax (CDK2) [%] | Ki (CRBN-DDB1) [nM] | SMILES |
| --- | --- | --- |
| 10 to 50 | ≤ 100 | COc1ccc(COC(=O)NCc2ccc3c(c2)C(=O)N(C2CCC(=O)NC2=O)C3)cc1 (centres unmarked) [Compound 25, (4-methoxyphenyl)methyl N-{[2-(2,6-dioxopiperidin-3-yl)-3-oxo-2,3-dihydro-1H-isoindol-5-yl]methyl}carbamate] |
| ≤ 10 | 100 to 1000 | COc1ccc2cc(COC(=O)NCc3ccc4c(c3)C(=O)N(C3CCC(=O)NC3=O)C4)ccc2c1 (centres unmarked) [Compound 28, (6-methoxynaphthalen-2-yl)methyl N-{[2-(2,6-dioxopiperidin-3-yl)-3-oxo-2,3-dihydro-1H-isoindol-5-yl]methyl}carbamate] |
| 10 to 50 | ≤ 100 | O=C1CCC(N2Cc3ccc(CNC(=O)OCc4ccc(OC(F)F)cc4)cc3C2=O)C(=O)N1 (centres unmarked) [Compound 33, [4-(difluoromethoxy)phenyl]methyl N-{[2-(2,6-dioxopiperidin-3-yl)-3-oxo-2,3-dihydro-1H-isoindol-5-yl]methyl}carbamate] |
| 10 to 50 | ≤ 100 | CSc1cccc(COC(=O)NCc2ccc3c(c2)C(=O)N(C2CCC(=O)NC2=O)C3)c1 (centres unmarked) [Compound 35, [3-(methylsulfanyl)phenyl]methyl N-{[2-(2,6-dioxopiperidin-3-yl)-3-oxo-2,3-dihydro-1H-isoindol-5-yl]methyl}carbamate] |
| 10 to 50 | ≤ 100 | O=C1CCC(N2Cc3ccc(CNC(=O)OCc4ccc(C5CCCC5)cc4)cc3C2=O)C(=O)N1 (centres unmarked) [Compound 37, (4-cyclopentylphenyl)methyl N-{[2-(2,6-dioxopiperidin-3-yl)-3-oxo-2,3-dihydro-1H-isoindol-5-yl]methyl}carbamate] |
| 10 to 50 | 100 to 1000 | CC(C)Oc1cccc(COC(=O)NCc2ccc3c(c2)C(=O)N(C2CCC(=O)NC2=O)C3)c1 (centres unmarked) [Compound 38, [3-(propan-2-yloxy)phenyl]methyl N-{[2-(2,6-dioxopiperidin-3-yl)-3-oxo-2,3-dihydro-1H-isoindol-5-yl]methyl}carbamate] |
| 10 to 50 | ≤ 100 | O=C1CCC(N2Cc3ccc(CNC(=O)OCc4ccc(OCC5CC5)cc4)cc3C2=O)C(=O)N1 (centres unmarked) [Compound 40, [4-(cyclopropylmethoxy)phenyl]methyl N-{[2-(2,6-dioxopiperidin-3-yl)-3-oxo-2,3-dihydro-1H-isoindol-5-yl]methyl}carbamate] |
| 10 to 50 | ≤ 100 | O=C1CCC(N2Cc3ccc(CNC(=O)OCc4ccc(CC(F)(F)F)cc4)cc3C2=O)C(=O)N1 (centres unmarked) [Compound 42, [4-(2,2,2-trifluoroethyl)phenyl]methyl N-{[2-(2,6-dioxopiperidin-3-yl)-3-oxo-2,3-dihydro-1H-isoindol-5-yl]methyl}carbamate] |
| 10 to 50 | ≤ 100 | COc1cc(COC(=O)NCc2ccc3c(c2)C(=O)N(C2CCC(=O)NC2=O)C3)ccc1F (centres unmarked) [Compound 44, (4-fluoro-3-methoxyphenyl)methyl N-{[2-(2,6-dioxopiperidin-3-yl)-3-oxo-2,3-dihydro-1H-isoindol-5-yl]methyl}carbamate] |
